Data reported in ChEMBL document CHEMBL1136793, “First dual aromatase-steroid sulfatase inhibitors” (J Med Chem, 2003).
Activity calls are given as the source filed them. The calls are words filed in the database; no cut-off is given here.

How the values were obtained:
Aromatase [1] = target: T1, Aromatase (Homo sapiens, UniProt P11511); assay: Percent reduction in aromatase P450 19A1 binding inhibition after JEG-3 cell pretreatment at 1 uM (from 86.5+/-1.4% to 23+/-1%); assay type: cell-based; conditions: jeg-3, 1 µM
T1 sequence (P11511 whole entry): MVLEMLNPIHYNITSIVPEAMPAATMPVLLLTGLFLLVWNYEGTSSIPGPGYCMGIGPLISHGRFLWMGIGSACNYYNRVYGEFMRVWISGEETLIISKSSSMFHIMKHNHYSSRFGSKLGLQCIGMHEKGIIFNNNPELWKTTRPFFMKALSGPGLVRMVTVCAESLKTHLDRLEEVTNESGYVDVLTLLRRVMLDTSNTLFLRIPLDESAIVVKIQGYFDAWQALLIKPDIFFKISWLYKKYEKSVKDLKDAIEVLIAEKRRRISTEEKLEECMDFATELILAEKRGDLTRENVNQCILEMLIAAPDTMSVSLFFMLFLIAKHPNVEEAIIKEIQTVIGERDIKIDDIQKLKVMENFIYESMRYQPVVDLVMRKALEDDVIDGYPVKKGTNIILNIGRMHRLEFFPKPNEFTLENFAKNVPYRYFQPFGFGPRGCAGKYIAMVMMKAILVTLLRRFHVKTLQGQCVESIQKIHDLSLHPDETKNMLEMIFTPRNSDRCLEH

[2] = target: T2, Steryl-sulfatase (Homo sapiens) (UniProt P08842); conditions: JEG-3, 1 uM
T2 sequence (whole entry): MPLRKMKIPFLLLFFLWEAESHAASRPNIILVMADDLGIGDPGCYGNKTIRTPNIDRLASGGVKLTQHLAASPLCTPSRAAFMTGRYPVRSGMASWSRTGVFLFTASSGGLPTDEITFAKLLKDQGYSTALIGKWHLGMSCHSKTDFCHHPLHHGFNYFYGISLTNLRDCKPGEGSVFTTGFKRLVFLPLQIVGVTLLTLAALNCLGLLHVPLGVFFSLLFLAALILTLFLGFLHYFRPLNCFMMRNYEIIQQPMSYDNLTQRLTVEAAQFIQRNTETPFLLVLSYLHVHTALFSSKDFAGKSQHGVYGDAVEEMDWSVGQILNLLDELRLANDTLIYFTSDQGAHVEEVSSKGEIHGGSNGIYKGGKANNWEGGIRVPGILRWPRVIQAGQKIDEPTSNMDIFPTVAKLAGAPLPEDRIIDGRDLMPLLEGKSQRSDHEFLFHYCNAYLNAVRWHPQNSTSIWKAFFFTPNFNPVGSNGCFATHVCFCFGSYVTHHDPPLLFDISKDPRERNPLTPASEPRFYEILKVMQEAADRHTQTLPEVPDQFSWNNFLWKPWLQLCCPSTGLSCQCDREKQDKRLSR

[3] = target: T2, Steryl-sulfatase (Homo sapiens); conditions: 3.3 nM
Description: In vitro inhibition of [6,7-3H]E1S binding to steroid sulfatase in JEG-3 human placental carcinoma cells at 3.3 nM

[4] = target: T2, Steryl-sulfatase (Homo sapiens); assay: In vitro inhibition of [6,7-3H]E1S binding to steroid sulfatase in JEG-3 human placental carcinoma cells; Not active
Aromatase [5] = target: T1, Aromatase
Description: In vitro inhibition of [1-beta-3H]-androstenedione binding to Cytochrome P450 19A1 of JEG-3 human placental carcinoma cells

**Q.** Which Reduction (Aromatase [1]) does the source give for `N#Cc1ccc(N(Cc2ccc(OS(N)(=O)=O)cc2)n2cnnc2)cc1` here?
**A.** The Reduction was 63.5%.

**Q.** What about the NS [2] of the same compound?
**A.** The NS was “inactive”.

**Q.** With `NS(=O)(=O)Oc1ccc2c3c(c(=O)oc2c1)CCCCC3` as the compound, how does the inhibition [3] read?
**A.** Its inhibition is 50%.

**Q.** How did the NA [4] turn out when `N#Cc1ccc(N(Cc2ccc(Br)cc2)n2cnnc2)cc1` was run?
**A.** The NA was “inactive”.

**Q.** And the IC50 (Aromatase [5])?
**A.** Its IC50 is 0.5 nM.
